Experimental data from the supplement of paper PMC10883282.
Where a name gives a salt, the structure may show the parent alone. ± gives the standard deviation of the averaged measurements.

System: VA-ES-BJ
Assay: relative viability vs DMSO control (72 h) (fraction); higher = more viable cells
Procedure, shortened: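 Sarcoma cell lines were grown in 384-well plates seeded toward 80–90% confluence and exposed 24 h later to serially diluted compound. After 72 h at 37 °C and 5% CO2, with 0.1% DMSO vehicle and a 5 µM positive control on the plates, ATPLite was read. Relative viability, given as percent growth averaged over up to triplicate wells, was rescaled so that 1 is full and 0 is none.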

Row | SMILES | relative viability (0.00017 µM) | relative viability (0.00051 µM) | relative viability (0.00152 µM) | relative viability (0.00457 µM) | relative viability (0.01372 µM) | relative viability (0.04115 µM) | relative viability (0.1235 µM) | relative viability (0.3704 µM) | relative viability (1.111 µM) | relative viability (3.333 µM) | relative viability (10 µM) | relative viability (2 pM) | relative viability (5 pM) | relative viability (15 pM) | relative viability (50 pM) | relative viability (0.00014 µM) | relative viability (0.00041 µM) | relative viability (0.0012 µM) | relative viability (0.0037 µM) | relative viability (0.011 µM) | relative viability (200 fM) | relative viability (600 fM)
1 | Cc1ccc(F)c(NC(=O)Nc2ccc(-c3cccc4[nH]nc(N)c34)cc2)c1 [Linifanib] | 1.05 ± 0.022 | 1.07 ± 0.041 | 1.06 ± 0.03 | 1.07 ± 0.056 | 1.05 ± 0.025 | 1.08 ± 0.059 | 1.07 ± 0.046 | 1.06 ± 0.056 | 1.11 ± 0.063 | 1.11 ± 0.035 | 1.03 ± 0.047 | – | – | – | – | – | – | – | – | – | – | –
2 | CC(C)N1CCN(Cc2cnc(-c3cc(-c4cccc5[nH]ccc45)cc4[nH]ncc34)o2)CC1 [Nemiralisib] | 0.985 ± 0.032 | 0.987 ± 0.045 | 0.981 ± 0.047 | 1.01 ± 0.04 | 0.96 ± 0.026 | 0.965 ± 0.041 | 0.982 ± 0.038 | 0.9285 ± 0.0062 | 0.901 ± 0.049 | 0.811 ± 0.017 | 0.655 ± 0.038 | – | – | – | – | – | – | – | – | – | – | –
3 | COCc1c(-c2cc3cc(C)cc(OC)c3s2)c2c(N)ncnn2c1CN1CCNC(=O)C1 [Rogaratinib] | 1.074 ± 0.0046 | 1.07 ± 0.037 | 1.05 ± 0.036 | 1.05 ± 0.021 | 1.06 ± 0.021 | 1.03 ± 0.042 | 1.04 ± 0.081 | 1.02 ± 0.075 | 1.02 ± 0.063 | 0.908 ± 0.087 | 0.568 ± 0.031 | – | – | – | – | – | – | – | – | – | – | –
4 | Cc1cc(Nc2ncnc3ccc(NC4=NC(C)(C)CO4)cc23)ccc1Oc1ccn2ncnc2c1 [Tucatinib] | 1.09 ± 0.036 | 1.058 ± 0.0029 | 1.07 ± 0.032 | 1.04 ± 0.015 | 1.02 ± 0.02 | 1.03 ± 0.043 | 1.02 ± 0.089 | 1.01 ± 0.058 | 1.03 ± 0.023 | 1.03 ± 0.049 | 1.01 ± 0.023 | – | – | – | – | – | – | – | – | – | – | –
5 | O=C(Nc1cnn2ccc(N3CCC[C@@H]3c3cc(F)ccc3F)nc12)N1CC[C@H](O)C1 [Larotrectinib] | 1.05 ± 0.058 | 1.07 ± 0.037 | 1.04 ± 0.04 | 1.06 ± 0.044 | 1.04 ± 0.017 | 1.02 ± 0.046 | 1 ± 0.04 | 0.99 ± 0.022 | 1.02 ± 0.036 | 0.989 ± 0.043 | 0.994 ± 0.043 | – | – | – | – | – | – | – | – | – | – | –
6 | CN1CCC(COc2cnc(-c3cccc(Cn4nc(-c5cccc(C#N)c5)ccc4=O)c3)nc2)CC1 [Tepotinib] | 1.07 ± 0.019 | 1.06 ± 0.021 | 1.02 ± 0.033 | 1.05 ± 0.044 | 1.02 ± 0.023 | 0.943 ± 0.044 | 0.869 ± 0.021 | 0.866 ± 0.04 | 0.869 ± 0.067 | 0.845 ± 0.045 | 0.869 ± 0.041 | – | – | – | – | – | – | – | – | – | – | –
7 | C[C@@H]1CCN(C(=O)CC#N)C[C@@H]1N(C)c1ncnc2[nH]ccc12 [Tofacitinib] | 1.052 ± 0.0034 | 1.07 ± 0.014 | 1.02 ± 0.037 | 1.06 ± 0.039 | 1.02 ± 0.035 | 1.02 ± 0.026 | 1.01 ± 0.019 | 1.01 ± 0.017 | 1 ± 0.036 | 0.9697 ± 0.0069 | 0.931 ± 0.018 | – | – | – | – | – | – | – | – | – | – | –
8 | N#CC[C@H](C1CCCC1)n1cc(-c2ncnc3[nH]ccc23)cn1 [Ruxolitinib] | 1.03 ± 0.03 | 1.05 ± 0.026 | 1.002 ± 0.01 | 1.006 ± 0.0095 | 1.02 ± 0.014 | 1.03 ± 0.024 | 0.987 ± 0.014 | 0.985 ± 0.025 | 0.969 ± 0.015 | 1 ± 0.03 | 0.8995 ± 0.0059 | – | – | – | – | – | – | – | – | – | – | –
9 | C=CC(=O)N1CCC[C@@H](n2nc(-c3ccc(Oc4ccccc4)cc3)c3c(N)ncnc32)C1 [Ibrutinib] | 1.09 ± 0.046 | 1.08 ± 0.035 | 1.08 ± 0.089 | 1.06 ± 0.026 | 1.08 ± 0.05 | 1.09 ± 0.044 | 1.07 ± 0.068 | 1.07 ± 0.092 | 1.13 ± 0.056 | 1.1 ± 0.036 | 0.989 ± 0.013 | – | – | – | – | – | – | – | – | – | – | –
10 | COc1c(OCCCN2CCOCC2)ccc2c1N=C(NC(=O)c1cnc(N)nc1)N1CCN=C21 [Copanlisib] | 1.09 ± 0.027 | 0.983 ± 0.071 | 1.066 ± 0.0069 | 0.74 ± 0.026 | 0.594 ± 0.029 | 0.484 ± 0.017 | 0.42 ± 0.022 | 0.396 ± 0.041 | 0.406 ± 0.019 | 0.394 ± 0.095 | 0.304 ± 0.16 | – | – | – | – | – | – | – | – | – | – | –
11 | COc1cccc2c1C(=O)c1c(O)c3c(c(O)c1C2=O)C[C@@](O)(C(=O)CO)C[C@@H]3O[C@H]1C[C@H](N)[C@H](O)[C@H](C)O1 [Doxorubicin Hydrochloride] | 1.03 ± 0.017 | 1.06 ± 0.08 | 1.03 ± 0.05 | 0.99 ± 0.033 | 0.857 ± 0.064 | 0.629 ± 0.028 | 0.386 ± 0.016 | 0.164 ± 0.012 | 0.189 ± 0.0067 | 0.143 ± 0.035 | 0.126 ± 0.011 | – | – | – | – | – | – | – | – | – | – | –
12 | CO[C@H]1C[C@@H]2CC[C@@H](C)[C@@](O)(O2)C(=O)C(=O)N2CCCC[C@H]2C(=O)O[C@H]([C@H](C)C[C@@H]2CC[C@@H](OP(C)(C)=O)[C@H](OC)C2)CC(=O)[C@H](C)/C=C(\C)[C@@H](O)[C@@H](OC)C(=O)[C@H](C)C[C@H](C)/C=C/C=C/C=C/1C [Ridaforolimus] | 0.97 ± 0.051 | 0.889 ± 0.031 | 0.664 ± 0.016 | 0.602 ± 0.03 | 0.538 ± 0.018 | 0.509 ± 0.025 | 0.487 ± 0.03 | 0.459 ± 0.0073 | 0.48 ± 0.014 | 0.458 ± 0.026 | 0.45 ± 0.0084 | – | – | – | – | – | – | – | – | – | – | –
13 | COc1cc2nccc(Oc3ccc(NC(=O)Nc4cc(C)on4)c(Cl)c3)c2cc1OC [Tivozanib] | 1.04 ± 0.022 | 1.07 ± 0.017 | 1.05 ± 0.019 | 1.05 ± 0.025 | 1.05 ± 0.026 | 1.05 ± 0.028 | 1.1 ± 0.04 | 1.14 ± 0.048 | 1.16 ± 0.1 | 1.16 ± 0.12 | 0.812 ± 0.065 | – | – | – | – | – | – | – | – | – | – | –
14 | C[C@@H](c1ccc2nccn2c1)n1nnc2ncc(-c3cnn(C)c3)nc21 [Volitinib] | 1.07 ± 0.067 | 1.07 ± 0.053 | 1.04 ± 0.062 | 1.02 ± 0.046 | 0.93 ± 0.043 | 0.868 ± 0.066 | 0.875 ± 0.03 | 0.879 ± 0.058 | 0.884 ± 0.048 | 0.873 ± 0.042 | 0.886 ± 0.048 | – | – | – | – | – | – | – | – | – | – | –
15 | COc1cc2c(cc1O)CCN[C@]21CS[C@@H]2c3c(OC(C)=O)c(C)c4c(c3[C@H](COC1=O)N1[C@@H]2[C@H]2c3c(cc(C)c(OC)c3O)C[C@@H]([C@@H]1O)N2C)OCO4 [Trabectedin] | – | – | – | – | – | – | – | – | – | – | – | 1.096 ± 0.0079 | 1.09 ± 0.014 | 1.07 ± 0.029 | 1.01 ± 0.046 | 0.683 ± 0.012 | 0.389 ± 0.1 | 0.239 ± 0.087 | 0.183 ± 0.014 | 0.203 ± 0.018 | 1.07 ± 0.024 | 1.08 ± 0.032
16 | Cc1nc(-c2cn3c(n2)-c2ccc(-c4cnn(C(C)(C)C(N)=O)c4)cc2OCC3)n(C(C)C)n1 [Taselisib] | 1.01 ± 0.045 | 1.01 ± 0.03 | 1.02 ± 0.071 | 0.971 ± 0.048 | 0.943 ± 0.038 | 0.844 ± 0.039 | 0.75 ± 0.06 | 0.616 ± 0.056 | 0.379 ± 0.013 | 0.293 ± 0.028 | 0.144 ± 0.15 | – | – | – | – | – | – | – | – | – | – | –
17 | COc1cc2c(Oc3ccc4[nH]c(C)cc4c3F)ncnc2cc1OCCCN1CCCC1 [Cediranib] | 1.05 ± 0.045 | 1.03 ± 0.055 | 1.04 ± 0.048 | 1.06 ± 0.038 | 1.04 ± 0.029 | 1.07 ± 0.067 | 1.09 ± 0.068 | 1.13 ± 0.065 | 1.15 ± 0.051 | 1.15 ± 0.022 | 1.13 ± 0.01 | – | – | – | – | – | – | – | – | – | – | –
18 | Cc1nc(NC(=O)N2CCC[C@H]2C(N)=O)sc1-c1ccnc(C(C)(C)C(F)(F)F)c1 [Alpelisib] | 1.062 ± 0.0069 | 1.03 ± 0.048 | 1.03 ± 0.022 | 0.992 ± 0.054 | 0.981 ± 0.04 | 0.94 ± 0.045 | 0.924 ± 0.045 | 0.833 ± 0.019 | 0.741 ± 0.021 | 0.61 ± 0.01 | 0.378 ± 0.011 | – | – | – | – | – | – | – | – | – | – | –
19 | COc1cc2/c(=N/c3ccc(Br)cc3F)nc[nH]c2cc1OCC1CCN(C)CC1 [Vandetanib] | 1.04 ± 0.044 | 1.04 ± 0.027 | 1.03 ± 0.043 | 1.05 ± 0.073 | 1.06 ± 0.022 | 1.1 ± 0.04 | 1.11 ± 0.029 | 1.11 ± 0.018 | 1.08 ± 0.02 | 0.93 ± 0.035 | 0.239 ± 0.0077 | – | – | – | – | – | – | – | – | – | – | –
